Assay results from patent publication US11306072B2, “5-bromo-indirubins” (City of Hope, priority 2013, dated 2022).
Like-named read-outs stand apart in the source and are kept apart here.

What was measured:
A2058 melanoma cells = experiment: MTS cell viability assay, A2058 melanoma cells; format: cell-based, human; conditions: quadruplicate, read-out: IC50 values against cancer cells, A2058 melanoma
Procedure: (§1) FIGS. 2A-2G. Effects of 5BIODs on viabilities of human cancer cells; MTS assays were performed for cell viability; human A549 non-small cell lung cancer (FIG. 2A), MDA-MB-231 and MDA-MB-468 breast cancer (FIG. 2B), A2058 melanoma (FIG. 2C), DU145 prostate cancer (FIG. 2D), SKOV3 ovarian cancer (FIG. 2E), T315I Abl mutant KCL-22 CML (FIG. 2F) and MIA-PaCa2 pancreatic cancer (FIG. 2G) cells were seeded in 96-well plates (5000/well for solid tumor cell lines and 10000 cells/well for CML cell line), incubated overnight at 37° C. in 5% (v/v) CO2 and exposed to 5BIODs at 1 μM or 10 μM concentration for 48 h; DMSO was used as the vehicle control; cell viability was determined by tetrazolium conversion to its formazan dye and absorbance was measured at 490 nm using an automated ELISA plate reader; each experiment was performed in quadruplicate. Histogram ordering: FIG. 2B depicts MDA-MB-231 (black) and MDA-MB-468 (gray), in order left to right; FIG. 2C: 1 μM (gray); 10 μM (black), in order left to right; FIG. 2D: 1 μM (gray); 10 μM (black), in order left to right;

AuroraA = target: T1, AuroraA (Homo sapiens, UniProt O14965); experiment: In vitro kinase assay with recombinant protein (33P-ATP), AuroraA; format: biochemical; conditions: 120 min at room temperature, read-out: IC50 against kinase activity in vitro, AuroraA
T1 sequence (O14965 1-403): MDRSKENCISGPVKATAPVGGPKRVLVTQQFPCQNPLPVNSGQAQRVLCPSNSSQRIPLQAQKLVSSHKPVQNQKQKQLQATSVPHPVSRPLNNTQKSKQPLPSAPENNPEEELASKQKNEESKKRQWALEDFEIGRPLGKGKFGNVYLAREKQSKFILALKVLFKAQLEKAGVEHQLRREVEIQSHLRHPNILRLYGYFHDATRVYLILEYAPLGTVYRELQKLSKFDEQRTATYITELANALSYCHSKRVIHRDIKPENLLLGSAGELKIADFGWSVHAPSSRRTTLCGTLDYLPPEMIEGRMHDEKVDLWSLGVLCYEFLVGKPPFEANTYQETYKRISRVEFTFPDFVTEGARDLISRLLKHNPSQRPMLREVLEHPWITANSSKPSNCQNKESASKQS
Procedure: (§2) The kinase assays were performed with recombinant proteins. Briefly, proteins, freshly prepared substrates and ^33P-ATP (specific activity 0.01 μCi/μl final) were mixed in reaction buffer (20 mM HEPES pH 7.5, 10 mM MgCl2, 1 mM EGTA, 0.02% Brij35, 0.02 mg/ml BSA, 0.1 mM Na3VO4, 2 mM DTT) in the presence of DMSO as control or 5BIODs. The mixtures were reacted for 120 min at room temperature. Samples were transferred onto P81 ion exchange paper and filters were extensively washed with 0.75% phosphoric acid. The radioactivities were monitored.

ABL1 = ABL1 (Homo sapiens, UniProt P00519); experiment: In vitro kinase assay with recombinant protein (33P-ATP), ABL1; format: biochemical; conditions: 120 min at room temperature, read-out: IC50 against kinase activity in vitro, ABL1
Procedure: as §2

ABL1 (T315I) = ABL1 (T315I) (Homo sapiens, UniProt P00519, T315I); experiment: In vitro kinase assay with recombinant protein (33P-ATP), ABL1 (T315I); format: biochemical; conditions: 120 min at room temperature, read-out: IC50 against kinase activity in vitro, ABL1 (T315I)
Procedure: as §2

TYK2 = TYK2 (Homo sapiens, UniProt P29597); experiment: In vitro kinase assay with recombinant protein (33P-ATP), TYK2; format: biochemical; conditions: 120 min at room temperature, read-out: IC50 against kinase activity in vitro, TYK2
Sequence of TYK2 (P29597 whole entry): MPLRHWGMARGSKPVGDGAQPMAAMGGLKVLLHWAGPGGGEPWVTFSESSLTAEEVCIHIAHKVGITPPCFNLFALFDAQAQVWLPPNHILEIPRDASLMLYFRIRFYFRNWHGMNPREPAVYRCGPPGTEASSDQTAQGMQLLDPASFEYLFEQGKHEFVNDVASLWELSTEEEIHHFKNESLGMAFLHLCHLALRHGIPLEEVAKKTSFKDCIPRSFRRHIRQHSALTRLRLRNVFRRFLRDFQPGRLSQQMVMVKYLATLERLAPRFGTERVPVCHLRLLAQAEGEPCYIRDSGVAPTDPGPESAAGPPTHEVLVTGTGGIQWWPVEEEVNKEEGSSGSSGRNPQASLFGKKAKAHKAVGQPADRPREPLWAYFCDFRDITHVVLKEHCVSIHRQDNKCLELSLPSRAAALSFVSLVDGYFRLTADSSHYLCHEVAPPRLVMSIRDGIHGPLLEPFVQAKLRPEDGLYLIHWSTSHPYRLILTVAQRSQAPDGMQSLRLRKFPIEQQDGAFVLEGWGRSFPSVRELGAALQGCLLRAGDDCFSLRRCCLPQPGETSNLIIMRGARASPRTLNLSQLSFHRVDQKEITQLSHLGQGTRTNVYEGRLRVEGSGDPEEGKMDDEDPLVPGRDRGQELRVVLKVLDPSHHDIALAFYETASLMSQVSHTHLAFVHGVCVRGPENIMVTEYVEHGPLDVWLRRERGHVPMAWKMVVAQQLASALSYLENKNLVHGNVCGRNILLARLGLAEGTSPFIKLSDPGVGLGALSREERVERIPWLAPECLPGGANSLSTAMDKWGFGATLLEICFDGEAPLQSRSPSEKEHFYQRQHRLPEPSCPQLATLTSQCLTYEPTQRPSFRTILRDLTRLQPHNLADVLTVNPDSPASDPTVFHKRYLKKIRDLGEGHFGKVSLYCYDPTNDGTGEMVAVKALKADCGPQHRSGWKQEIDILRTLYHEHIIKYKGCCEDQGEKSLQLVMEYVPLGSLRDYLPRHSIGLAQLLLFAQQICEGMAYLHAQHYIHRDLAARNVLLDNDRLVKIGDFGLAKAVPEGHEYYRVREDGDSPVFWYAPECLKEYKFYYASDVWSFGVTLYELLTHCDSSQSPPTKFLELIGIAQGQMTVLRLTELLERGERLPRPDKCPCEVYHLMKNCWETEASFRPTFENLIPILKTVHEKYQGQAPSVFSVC
Procedure: as §2

[1] = tested on: DU145 prostate cancer cells; experiment: MTS cell viability assay, DU145 prostate cancer cells; format: cell-based, human; conditions: quadruplicate, read-out: IC50 values against cancer cells, DU145 prostate
c-Src = c-Src (Homo sapiens, UniProt P12931); experiment: In vitro kinase assay with recombinant protein (33P-ATP), c-Src; format: biochemical; conditions: 120 min at room temperature, read-out: IC50 against kinase activity in vitro, c-Src
Sequence of c-Src (P12931 whole entry): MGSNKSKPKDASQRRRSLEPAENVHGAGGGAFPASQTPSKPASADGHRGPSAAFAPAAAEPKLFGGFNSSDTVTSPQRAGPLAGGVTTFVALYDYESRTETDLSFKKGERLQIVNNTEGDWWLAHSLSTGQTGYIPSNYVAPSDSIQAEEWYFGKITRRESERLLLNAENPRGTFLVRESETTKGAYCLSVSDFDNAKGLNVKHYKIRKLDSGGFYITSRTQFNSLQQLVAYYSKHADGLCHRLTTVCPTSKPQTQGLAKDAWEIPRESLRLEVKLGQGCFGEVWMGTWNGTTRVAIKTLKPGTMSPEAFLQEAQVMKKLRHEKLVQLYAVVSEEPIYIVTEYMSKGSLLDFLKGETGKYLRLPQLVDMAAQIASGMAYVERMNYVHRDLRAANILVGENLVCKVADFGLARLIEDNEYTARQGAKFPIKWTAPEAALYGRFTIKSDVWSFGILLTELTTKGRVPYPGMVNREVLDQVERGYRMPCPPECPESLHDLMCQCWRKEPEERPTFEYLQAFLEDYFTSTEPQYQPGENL
Procedure: as §2

[2] = tested on: T315I Abl mutant KCL-22 CML cells; experiment: MTS cell viability assay, T315I Abl mutant KCL-22 CML cells; format: cell-based; conditions: Homo sapiens, 48 h exposure, quadruplicate, read-out: IC50 values against cancer cells, T315l Alb mutant KCL-22 CML
Procedure: as §1

JAK2 = JAK2 (Homo sapiens, UniProt O60674); experiment: In vitro kinase assay with recombinant protein (33P-ATP), JAK2; format: biochemical; conditions: 120 min at room temperature, read-out: IC50 against kinase activity in vitro, JAK2
Sequence of JAK2 (O60674 whole entry): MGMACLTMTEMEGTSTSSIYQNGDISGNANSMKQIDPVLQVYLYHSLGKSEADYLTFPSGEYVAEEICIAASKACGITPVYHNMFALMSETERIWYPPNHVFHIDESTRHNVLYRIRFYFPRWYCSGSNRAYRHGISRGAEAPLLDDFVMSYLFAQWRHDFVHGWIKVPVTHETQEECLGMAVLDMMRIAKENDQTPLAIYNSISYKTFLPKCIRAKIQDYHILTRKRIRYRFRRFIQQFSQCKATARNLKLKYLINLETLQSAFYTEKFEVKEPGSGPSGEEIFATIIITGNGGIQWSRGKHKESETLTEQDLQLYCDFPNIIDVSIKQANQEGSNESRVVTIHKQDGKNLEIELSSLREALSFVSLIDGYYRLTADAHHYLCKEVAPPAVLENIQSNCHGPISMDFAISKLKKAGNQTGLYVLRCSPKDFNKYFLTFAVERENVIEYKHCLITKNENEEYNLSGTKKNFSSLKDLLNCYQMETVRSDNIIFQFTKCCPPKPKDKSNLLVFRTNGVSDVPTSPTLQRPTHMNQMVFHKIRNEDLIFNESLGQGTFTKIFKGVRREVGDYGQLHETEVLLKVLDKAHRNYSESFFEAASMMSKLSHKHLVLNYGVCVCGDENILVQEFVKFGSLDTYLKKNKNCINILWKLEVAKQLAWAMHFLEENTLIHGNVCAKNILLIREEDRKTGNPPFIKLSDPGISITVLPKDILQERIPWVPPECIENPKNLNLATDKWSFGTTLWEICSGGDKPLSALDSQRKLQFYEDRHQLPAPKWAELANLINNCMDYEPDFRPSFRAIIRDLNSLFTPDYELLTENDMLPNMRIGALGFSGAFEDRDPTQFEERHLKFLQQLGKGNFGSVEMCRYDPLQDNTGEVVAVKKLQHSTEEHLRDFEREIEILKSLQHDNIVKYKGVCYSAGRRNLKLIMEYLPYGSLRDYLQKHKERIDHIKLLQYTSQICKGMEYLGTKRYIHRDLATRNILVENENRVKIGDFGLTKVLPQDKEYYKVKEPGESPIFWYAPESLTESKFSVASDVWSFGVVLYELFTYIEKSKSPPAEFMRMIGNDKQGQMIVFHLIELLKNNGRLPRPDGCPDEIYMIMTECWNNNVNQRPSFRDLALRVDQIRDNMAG
Procedure: as §2

[3] = tested on: MDA-MB-231 breast cancer cells; experiment: MTS cell viability assay, MDA-MB-231 breast cancer cells; format: cell-based; conditions: Homo sapiens, 48 h exposure, quadruplicate, read-out: IC50 values against cancer cells, MDA-MB-231 breast
Procedure: as §1

[4] = tested on: MIA-PaCa2 pancreatic cancer cells; experiment: MTS cell viability assay, MIA-PaCa2 pancreatic cancer cells; format: cell-based; conditions: Homo sapiens, 48 h exposure, quadruplicate, read-out: IC50 values against cancer cells, PaCa2 pancreatic
Procedure: as §1

[5] = tested on: SKOV3 ovarian cancer cells; experiment: MTS cell viability assay, SKOV3 ovarian cancer cells; format: cell-based, human; conditions: for IC50: Homo sapiens, SK-OV-3, MTS cell viability, 48 h exposure, quadruplicate, read-out: IC50 values against cancer cells, SKOV3 ovarian; for effect on viabilities of SKOV3 ovarian cancer cells: MTS assay, FIG. 3 legend, result in words
[6] = tested on: A549 non-small cell lung cancer cells; experiment: MTS cell viability assay, A549 lung cancer cells; format: cell-based; conditions: Homo sapiens, 48 h exposure, quadruplicate, read-out: IC50 values against cancer cells, A549 lung
Procedure: as §1

[7] = Homo sapiens, A2058, 48 h, 48 h exposure
[8] = Homo sapiens, DU-145, 48 h, 48 h exposure
[9] = Homo sapiens, A2058, 48 h exposure
[10] = Homo sapiens, DU-145, 48 h exposure

IC50 (A2058 melanoma cells; [7]) | IC50 (AuroraA) | IC50 (ABL1) | IC50 (ABL1 (T315I)) | IC50 (TYK2) | IC50 [1, 8] | IC50 (c-Src) | IC50 (JAK2) | IC50 [3] | IC50 [4] | IC50 [5] | IC50 [6] | IC50 ([1]; 48 h exposure) | IC50 (A2058 melanoma cells; 48 h exposure) | IC50 (A2058 melanoma cells; [9]) | IC50 [1, 10] | Compound | IC50 [2] | effect on viabilities of SKOV3 ovarian cancer cells [5]
360 nM | 954 nM | 1020 nM | 6580 nM | 31.6 nM | 420 nM | 34.3 nM | 526 nM | 300 nM | 1200 nM | 410 nM | 470 nM | – | – | – | – | CCN(CC)CCO/N=C1/C(=C2/C(=O)Nc3ccc(Br)cc32)Nc2ccccc21 [Compound 1276] | 300 nM | reduce viabilities
1900 nM | 3310 nM | 4770 nM | > 10000 nM | 146 nM | 770 nM | 95.4 nM | 1250 nM | – | – | – | – | – | – | – | – | CCN(CC)CCON=C1C(=C2C(=O)Nc3ccc(Br)cc32)Nc2ccccc21 [Compound 1277] | – | –
1700 nM | 122 nM | 392 nM | 1550 nM | 27 nM | – | 12.1 nM | 104 nM | 710 nM | 2500 nM | 750 nM | 600 nM | 780 nM | – | – | – | CN(CCO/N=C1/C(=C2/C(=O)Nc3ccc(Br)cc32)Nc2ccccc21)CC(O)CO (centres unmarked) [Compound 1278] | 500 nM | –
– | 301 nM | 1440 nM | 5550 nM | 62.7 nM | – | 69.6 nM | 410 nM | – | – | – | – | 2000 nM | 2200 nM | – | – | CN(CCO/N=C1/C(=C2/C(=O)Nc3ccc(Br)cc32)Nc2ccccc21)CC(O)CO (centres unmarked) [Compound 1279] | – | –
– | – | – | – | – | – | – | – | 660 nM | 960 nM | 1340 nM | 840 nM | – | – | 1600 nM | 660 nM | O=C1Nc2ccc(Br)cc2/C1=C1/Nc2ccccc2/C1=N\OCCN1CCCC1 [Compound 1280] | 860 nM | –
– | 2050 nM | 2500 nM | 7080 nM | 21 nM | – | 19.7 nM | 264 nM | 370 nM | 440 nM | 750 nM | 400 nM | – | – | 1800 nM | 660 nM | O=C1Nc2ccc(Br)cc2C1=C1Nc2ccccc2C1=NOCCN1CCCC1 [Compound 1281] | 580 nM | –
– | – | – | – | – | – | – | – | 780 nM | 1000 nM | 770 nM | 500 nM | – | – | – | 910 nM | O=C1Nc2ccc(Br)cc2/C1=C1/Nc2ccccc2/C1=N\OCCN1CCN(CCO)CC1 [Compound 1282] | – | –
– | – | – | – | – | – | – | – | 1000 nM | – | 1360 nM | 440 nM | – | – | – | – | CN1CCN(CCO/N=C2/C(=C3/C(=O)Nc4ccc(Br)cc43)Nc3ccccc32)CC1 [Compound 1284] | – | –
– | – | – | – | – | – | – | – | 1360 nM | – | 1840 nM | 930 nM | – | – | – | – | O=C1Nc2ccc(Br)cc2/C1=C1/Nc2ccccc2/C1=N\OCCN1CCN(CCOCCO)CC1 [Compound 1286] | – | –
– | 143 nM | 71.4 nM | 214 nM | 20.1 nM | – | 3.7 nM | 47.6 nM | 400 nM | 460 nM | 460 nM | 380 nM | – | – | 1100 nM | 690 nM | O=C1Nc2ccc(Br)cc2C1=C1Nc2ccccc2C1=NOCCN1CCNCC1 [Compound 1289] | 600 nM | reduce viabilities
– | – | – | – | – | – | – | – | – | – | – | – | – | – | 880 nM | 320 nM | CN(C)CCO/N=C1/C(=C2/C(=O)Nc3ccc(Br)cc32)Nc2ccccc21 [Compound 1501] | – | –
– | – | – | – | – | – | – | – | – | – | – | – | – | – | 1700 nM | 1500 nM | CCCN(CCC)CCO/N=C1/C(=C2/C(=O)Nc3ccc(Br)cc32)Nc2ccccc21 [Compound 1502] | – | –
